Results from patent publication US8148362B2, “Compound having heterocyclic ring” (Research Foundation Itsuu Laboratory, priority 2006, dated 2012).

Columns and labels:
E. faecalis ATCC 29212 [1] = assay: MIC by CLSI standard method (Test Example 1); type: cell-based; details: Enterococcus faecalis, ATCC29212, cation-adjusted Mueller Hinton Broth, about 5×10^5 CFU/mL
Method: (§1) Minimal inhibitory concentration (MIC: μg/ml) against different strains of bacteria was assayed according to the standard method recommended by CLSI (clinical and laboratory standards institute). Samples were prepared from test compound solution in DMSO (1280 μg/mL) by two fold (serial) dilution with DMSO. The sample was added to bacteria suspension at the concentration of 5%, and MIC was determined. Mueller Hinton Broth, which has been adjusted for cation concentration, was used for culture media in this test. The inoculation concentration was about 5×10^5 CFU/mL.

E. faecalis SR7914 [2] = assay: MIC by CLSI standard method (Test Example 1); type: cell-based; details: Enterococcus faecalis, cation-adjusted Mueller Hinton Broth, about 5×10^5 CFU/mL
Method: as §1

E. faecium SR7917 = assay: MIC by CLSI standard method (Test Example 1); type: cell-based; details: Enterococcus faecium, cation-adjusted Mueller Hinton Broth, about 5×10^5 CFU/mL
Method: as §1

S. aureus ATCC 700787 = assay: MIC by CLSI standard method (Test Example 1); type: cell-based; details: Staphylococcus aureus, ATCC700787, cation-adjusted Mueller Hinton Broth, about 5×10^5 CFU/mL
Method: as §1

S. aureus FDA 209P [3] = assay: MIC by CLSI standard method (Test Example 1); type: cell-based; details: Staphylococcus aureus, FDA209P, cation-adjusted Mueller Hinton Broth, about 5×10^5 CFU/mL
Method: as §1

S. aureus smith = assay: MIC by CLSI standard method (Test Example 1); type: cell-based; details: Staphylococcus aureus, cation-adjusted Mueller Hinton Broth, about 5×10^5 CFU/mL
Method: as §1

E. faecalis ATCC 29212 [4] = assay: MIC of quinolone compounds (Test Example 2); type: cell-based; details: Enterococcus faecalis, ATCC29212, procedure of Test Example 1
Method: as §1
(§2) The quinolone compounds of the invention were tested for antimicrobial activity according to the procedure in Test Example 1.

E. faecalis SR7914 [5] = assay: MIC of quinolone compounds (Test Example 2); type: cell-based; details: Enterococcus faecalis, procedure of Test Example 1
Method: as §1, §2

S. aureus FDA 209P [6] = assay: MIC of quinolone compounds (Test Example 2); type: cell-based; details: Staphylococcus aureus, FDA209P, procedure of Test Example 1
Method: as §1, §2

S. aureus SR3637 = assay: MIC of quinolone compounds (Test Example 2); type: cell-based; details: Staphylococcus aureus, procedure of Test Example 1
Method: as §1, §2

For `CC(=O)NC[C@H]1CN(c2cc(F)c(N3CCn4c(=O)c5cccnc5n4CC3)c(F)c2)C(=O)O1` [Example 81], the MIC (E. faecalis ATCC 29212 [1]) was ≤ 1 µg/mL, the MIC (E. faecalis SR7914 [2]) was ≤ 1 µg/mL and the MIC (E. faecium SR7917) was ≤ 1 µg/mL. The MIC (S. aureus ATCC 700787) was ≤ 1 µg/mL, the MIC (S. aureus FDA 209P [3]) was ≤ 1 µg/mL and the MIC (S. aureus smith) was ≤ 1 µg/mL.
With `O=C(NC[C@H]1CN(c2cc(F)c(N3CCn4c(=O)c5cccnc5n4CC3)c(F)c2)C(=O)O1)C(F)F` [Example 82] the MIC (E. faecalis ATCC 29212 [1]) was ≤ 1 µg/mL, the MIC (E. faecalis SR7914 [2]) was ≤ 1 µg/mL and the MIC (E. faecium SR7917) was ≤ 1 µg/mL. For the same compound, the MIC (S. aureus ATCC 700787) was ≤ 1 µg/mL, the MIC (S. aureus FDA 209P [3]) was ≤ 1 µg/mL and the MIC (S. aureus smith) was ≤ 1 µg/mL.
For `CC(=O)NC[C@H]1CN(c2cc(F)c(N3CCNN(C(=O)Nc4nccs4)CC3)c(F)c2)C(=O)O1` [Example 83], the MIC (E. faecalis ATCC 29212 [1]) was ≤ 1 µg/mL, the MIC (E. faecalis SR7914 [2]) was ≤ 1 µg/mL and the MIC (E. faecium SR7917) was ≤ 1 µg/mL. The MIC (S. aureus ATCC 700787) was ≤ 1 µg/mL, the MIC (S. aureus FDA 209P [3]) was ≤ 1 µg/mL and the MIC (S. aureus smith) was ≤ 1 µg/mL.
In the case of `O=C(NC[C@H]1CN(c2cc(F)c(N3CCNN(C(=O)Nc4nccs4)CC3)c(F)c2)C(=O)O1)C(F)F` [Example 84], the MIC (E. faecalis ATCC 29212 [1]) is reported as ≤ 1 µg/mL, the MIC (E. faecalis SR7914 [2]) is reported as ≤ 1 µg/mL and the MIC (E. faecium SR7917) is reported as ≤ 1 µg/mL. The MIC (S. aureus ATCC 700787) was ≤ 1 µg/mL, the MIC (S. aureus FDA 209P [3]) was ≤ 1 µg/mL and the MIC (S. aureus smith) was ≤ 1 µg/mL.
In the case of `CC(=O)NC[C@H]1CN(c2cc(F)c(N3CCNN(C(=O)Nc4ccncc4)CC3)c(F)c2)C(=O)O1` [Example 85], the MIC (E. faecalis ATCC 29212 [1]) is reported as ≤ 1 µg/mL, the MIC (E. faecalis SR7914 [2]) is reported as ≤ 1 µg/mL and the MIC (E. faecium SR7917) is reported as ≤ 1 µg/mL. The MIC (S. aureus ATCC 700787) was ≤ 1 µg/mL, the MIC (S. aureus FDA 209P [3]) was ≤ 1 µg/mL and the MIC (S. aureus smith) was ≤ 1 µg/mL.
For `COc1c(N2CCNOCC2)c(F)cc2c(=O)c(C(=O)O)cn(C3CC3)c12` [Compound (71)], the MIC (E. faecalis ATCC 29212 [4]) was ≤ 1 µg/mL, the MIC (E. faecalis SR7914 [5]) was ≤ 1 µg/mL and the MIC (S. aureus FDA 209P [6]) was ≤ 1 µg/mL. For the same compound, the MIC (S. aureus SR3637) was ≤ 1 µg/mL and the melting point was 222 to 224 °C.
With `CC(=O)NC[C@H]1CN(c2cc(F)c(N3CCNN(C(=O)CO)CC3)c(F)c2)C(=O)O1` [Example 91] the MIC (E. faecalis ATCC 29212 [1]) was ≤ 1 µg/mL, the MIC (E. faecalis SR7914 [2]) was ≤ 1 µg/mL and the MIC (E. faecium SR7917) was ≤ 1 µg/mL. For the same compound, the MIC (S. aureus ATCC 700787) was ≤ 1 µg/mL, the MIC (S. aureus FDA 209P [3]) was ≤ 1 µg/mL and the MIC (S. aureus smith) was ≤ 1 µg/mL.
In the case of `O=C(NC[C@H]1CN(c2cc(F)c(N3CCNN(C(=O)Nc4ccncc4)CC3)c(F)c2)C(=O)O1)C(F)F` [Example 86], the MIC (E. faecalis ATCC 29212 [1]) is reported as ≤ 1 µg/mL, the MIC (E. faecalis SR7914 [2]) is reported as ≤ 1 µg/mL and the MIC (E. faecium SR7917) is reported as ≤ 1 µg/mL. The MIC (S. aureus ATCC 700787) was ≤ 1 µg/mL, the MIC (S. aureus FDA 209P [3]) was ≤ 1 µg/mL and the MIC (S. aureus smith) was ≤ 1 µg/mL.
